Results as given in US8486936B2, “Antagonist of smoothened” (AllaChem, LLC, priority 2009, dated 2013).

Tested on: Hh-signalling cascade
Experiment: Inhibition of SHh-stimulated alkaline phosphatase in C3H10T1/2 cells (Hh-signalling cascade IC50)
Assay type: cell-based
Settings: Mus musculus, C3H 10T1/2, 384-well plates, triplicates, SHh protein stimulation, read-out: Activity (IC50, half maximal inhibition of stimulation of cell alkaline phosphatase by SHh)
Procedure: Version 1—manual setup, 96-well plates, dose-response, C3H/10T1/2 cells. Aim: to determine activity of Sonic Hedgehog pathway inhibitors.
• C3H/10T1/2 cells, grown in DMEM medium/10% FBS to 60-80% confluent • Assay Plates: 96-well half-area tissue culture plates Corning cat. #3697 • Tested compounds as 10 mM DMSO solutions in 96-tube racks • Recombinant Human Sonic Hedgehog (C2411) protein, RDS product #1845-SH, reconstituted at 200 μg/ml in PBS. • Lysis Buffer: 10 mM Ethanolamine Buffer (pH 8.0), 0.2% Triton-X100, supplemented 1:100 with Protease Inhibitor Cocktail (EMD Bioscience product #539134). • CSPD Alkaline Phosphatase Substrate with Emerald-II (Applied Biosystems product #T2212). • Prepare 1 Assay plate for every 4 compounds (see FIG. 1): • 1. Harvest C3H/10T1/2 cells with TrypLE Express solution according to a regular cell subculture protocol • 2. Count the cells and calculate dilution necessary to obtain cell suspension at 5×10^3 cells per 40 μl ([…]) • 3. Dilute cells with DMEM/10% FBS and distribute at 40 μl/well • 4. Place the plate(s) into the incubator and allow cells to attach for 3-5 hours • Prepare dilution plate: • 1. Designate 1 column for each compound • 2. Add 99 μl of DMEM/10% FBS to the wells in row A and 50 μl to the wells in rows B-H • 3. Add 1 μl of compound DMSO stocks to the wells in row A, mix, change the tip. • 4. Transfer […] of compound solutions in row A to the wells in row B, mix, change the tip • 5. […] Row G is a “no compound” positive control; row H is a “no Hedgehog” negative control • Add 5 μl/well of 10× compound dilutions from dilution plate to the corresponding wells in assay plates (see assay plate layout). Use 125 μl automatic repeating pipettor. • Place plates into incubator for 20-30 min. • Prepare 3 μg/ml 10× solution of Sonic Hedgehog (C24II) protein (Hh) in DMEM/10% FBS: • 1. Calculate total volume needed as 500 μl per full plate or 125 μl per each compound tested • 2. Add 1.5 μl of Hh stock solution (200 μg/ml in PBS) per each 98.5 μl of medium • Add 5 μl/well of 10× Hh solution to the wells in rows A-G, add 5 μl/well of medium to the wells in row H (see assay plate layout). Use 125 μl automatic repeating pipettor. • Place plates into incubator for 3 days. • Wash cells on plate: aspirate medium, add 100 μl/well of PBS or HBSS and aspirate again. • Add 20 μl/well of lysis buffer and incubate for 15 min. at room temperature on a shaker platform. • Transfer 7.5 μl/well of cell lysate into white opaque plates and add 45 μl/well of CSPD Alkaline Phosphatase substrate. • Cover from light and incubate for 45 min. at room temperature on a shaker platform. • Read the plate(s) on Wallac VictorV reader using Luminescence (0.1 s) protocol.
Cells C3H10T1/2 were used for identification of inhibitors of SHh-protein signaling cascade. SHh-protein activates cells C3H10T1/2, that leads to their osteogenic differentiation [1) Kinto N., Iwamoto M., Enomoto-Iwamoto M., Noji S., Ohuchi H., Yoshioka H., Kataoka H., Wada Y., Yuhao G., Takahashi H. E., Yoshiki S., Yamaguchi A. Fibroblasts expressing Sonic hedgehog induce osteoblast differentiation and ectopic bone formation. FEBS Lett. 1997; 404 (2-3): 319-23. 2) Spinella-Jaegle S., Rawadi G., Kawai S., Gallea S., Faucheu C., Mollat P., Courtois B., Bergaud B., Ramez V., Blanchet A. M., Adelmant G., Baron R., Roman-Roman S. Sonic hedgehog increases the commitment of pluripotent mesenchymal cells into the osteoblastic lineage and abolishes adipocytic differentiation. J. Cell Sci. 2001; 114 (Pt 11): 2085-94] and, in particular, to expression enhancement of alkaline phosphatase enzyme.
The cells were cultivated in DMEM medium with 10% embryonal calfish serum in incubator at 37° C., 100% humidity and 5% CO2 content. The cells were placed in 384-well plates and left for a night. […]

Q: Which IC50 does the source give for Cc1cc(S(C)(=O)=O)ccc1C(=O)Nc1ccc(-c2cn3cccc(C)c3n2)cc1 [Cpd-020] here?
A: < 500 nM

Q: For Cc1cccc(C)c1C(=O)Nc1ccc(-c2cn3cccc(C)c3n2)cc1 [Cpd-018], which IC50 is on record?
A: < 500 nM

Q: CCOc1ccc(C(=O)Nc2ccc(-c3cn4cccc(C)c4n3)cc2)c(Cl)c1 [Cpd-010] was tested. Which IC50 did it give?
A: < 500 nM

Q: Which IC50 does the source give for Cc1cccn2cc(-c3ccc(NC(=O)c4ccc(S(C)(=O)=O)cc4Cl)cc3)nc12 [Cpd-002] here?
A: < 500 nM

Q: With Cc1cccn2cc(-c3ccc(NC(=O)c4ccc(C(C)(C)C)cc4)cc3)nc12 [Cpd-015] as the compound, how does the IC50 read?
A: 500 to 5000 nM

Q: For Cc1cccn2cc(-c3ccc(NC(=O)c4ccc(Cl)cc4Cl)cc3)nc12 [Cpd-009], which IC50 is on record?
A: 5000 to 50000 nM

Q: With COc1ccc(C(=O)Nc2ccc(-c3cn4cccc(C)c4n3)cc2)c(Br)c1 [Cpd-001] as the compound, how does the IC50 read?
A: < 500 nM

Q: With Cc1cccn2cc(-c3ccc(NC(=O)c4ccc(-c5ccccc5)cc4)cc3)nc12 [Cpd-017] as the compound, how does the IC50 read?
A: 5000 to 50000 nM

Q: Which IC50 does the source give for Cc1cccn2cc(-c3ccc(NC(=O)c4ccc(F)cc4F)cc3)nc12 [Cpd-007] here?
A: 5000 to 50000 nM

Q: How did the IC50 turn out when CCOc1ccc(C(=O)Nc2ccc(-c3cn4cccc(C)c4n3)cc2)c(Br)c1 [Cpd-019] was run?
A: 500 to 5000 nM

Q: For CCc1cccn2cc(-c3ccc(NC(=O)c4ccc(F)cc4F)cc3)nc12 [Cpd-008], which IC50 is on record?
A: 500 to 5000 nM

Q: For Cc1cccn2cc(-c3ccc(NC(=O)c4ccccc4F)cc3)nc12 [Cpd-006], which IC50 is on record?
A: 500 to 5000 nM

Q: With Cc1cccn2cc(-c3ccc(NC(=O)c4ccc(C(F)(F)F)cc4)cc3)nc12 [Cpd-016] as the compound, how does the IC50 read?
A: > 50000 nM

Q: With Cc1cccn2cc(-c3ccc(NC(=O)c4ccc5c(c4)OCO5)cc3)nc12 [Cpd-012] as the compound, how does the IC50 read?
A: 500 to 5000 nM

Q: COc1ccc(C(=O)Nc2ccc(-c3cn4cccc(C)c4n3)cc2)cc1OC [Cpd-013] was tested. Which IC50 did it give?
A: < 500 nM

Q: With Cc1cccn2cc(-c3ccc(NC(=O)c4ccc(S(C)(=O)=O)cc4Br)cc3)nc12 [Cpd-003] as the compound, how does the IC50 read?
A: < 500 nM

Q: For Cc1cccn2cc(-c3ccc(NC(=O)c4ccc(C(C)C)cc4)cc3)nc12 [Cpd-014], which IC50 is on record?
A: 5000 to 50000 nM

Q: For COc1ccc(C(=O)Nc2ccc(-c3cn4cccc(C)c4n3)cc2)c(Cl)c1 [Cpd-005], which IC50 is on record?
A: < 500 nM

Q: With COc1ccc(C(=O)Nc2ccc(-c3cn4cccc(C)c4n3)cc2)c(F)c1 [Cpd-011] as the compound, how does the IC50 read?
A: < 500 nM

Q: Which IC50 does the source give for COc1ccc(C(=O)Nc2ccc(-c3cn4cccc(C)c4n3)cc2)c(Oc2ccncc2)c1 [Cpd-004] here?
A: 500 to 5000 nM
